Assay results as given in PubChem BioAssay (NCI).
Where “and” joins values, the source holds several entries; their conditions need not be identical. Equal values may be shown once.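 Assay format: 96-well plates, 48-hour exposure. GI50 = concentration required for 50% inhibition of growth. At the TGI there is no net growth.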 Where a SMILES comes first, the peptide text is derived from it. [ ]: non-standard residue; d: D form. NMeY = CN[C@@H](Cc1ccc(O)cc1)C(=O)O; dNMeF = CN[C@H](Cc1ccccc1)C(=O)O; Sar = CNCC(=O)O

test system: MDA-MB-468 breast; assay: NCI tumour cell line growth inhibition, 48 h

| Structure (SMILES) | GI50 | TGI |
| --- | --- | --- |
| CN1CCN(Cc2ccc(NC(=O)c3nc4ccc5[nH]ncc5c4c4c3CCC4)cc2C(F)(F)F)CC1 | 0.936 µM | 2.08 µM |
| CO[C@H]1C[C@@H]2CC[C@@H](C)[C@@](O)(O2)C(=O)C(=O)N2CCCC[C@H]2C(=O)O[C@H]([C@H](C)C[C@@H]2CC[C@@H](OP(C)(C)=O)[C@H](OC)C2)CC(=O)[C@H](C)/C=C(\C)[C@@H](O)[C@@H](OC)C(=O)[C@H](C)C[C@H](C)/C=C/C=C/C=C/1C | < 0.01 µM | 17.1 µM |
| CC(=O)OC1CCC2(C)C(CCC3C4CC=C(C(C)=O)C4(C)OC(=O)CC32)C1 (configuration not stated) | 1.64 µM | 3.74 µM |
| COc1cc(Cn2ccc3c2-c2oncc2CC3)cc(OC)c1 | 0.84 µM | 7 µM |
| CCCCCCCCCCCC[n+]1ccccc1 | 0.252 µM | 2.02 µM |
| CC1(C)CC(OCCCC[P+](c2ccccc2)(c2ccccc2)c2ccccc2)CC(C)(C)N1O | 0.331 µM | 2.87 µM |
| CC1(C)N=C(N)N=C(N)N1c1cccc(CCCCc2ccccc2)c1 | 0.149 µM | 13.8 µM |
| CC[C@H](C)[C@@H]1NC(=O)[C@H](Cc2ccc(O)cc2)N(C)C(=O)[C@H](Cc2ccccc2)NC(=O)CN(C)C(=O)[C@@H]2CCCN2C(=O)[C@@H](Cc2ccccc2)N(C)C(=O)[C@H](CC(C)C)NC1=O (cyclo(F[NMeY]IL[dNMeF]P[Sar])) | 0.367 µM | 2.82 µM |
| C/C(=C(/c1ccc(O)cc1)c1ccc(OCCN2CCCCCC2)cc1)c1ccccc1 | 41.2 µM | > 100 µM |
| O=C1Nc2cc(Cl)ccc2/C1=C\c1ccc(OCc2ccc(Br)cc2F)cc1 | 2.13 µM | 5.21 µM |
| C=CC(=O)N1CCC([C@@H]2CCNc3c(C(N)=O)c(-c4ccc(Oc5ccccc5)cc4)nn32)CC1 | 0.057 µM | 0.711 µM |
| Nc1c(C(=O)c2cccc(CCC3(O)CCCC3)c2)cnn1-c1ccc(F)cc1 | 5.97 µM | > 25 µM |
| CC[C@H](C)[C@H](NC(=O)Nc1ccccc1)C(=O)N(C)[C@H](C[C@@H](OC(C)=O)c1nc(C(=O)N[C@@H](Cc2ccccc2)C[C@H](C)C(=O)OC)cs1)C(C)C | 0.514 µM | 7.22 µM |
| c1ccc(-c2nnc(Nc3ccc4c(c3)OCCO4)o2)c(NCc2ccncc2)c1 | 0.0953 µM | 0.528 µM |
| C/C(=N\NC(=O)c1ccccc1O)c1cccc(/C(C)=N/NC(=O)c2ccccc2O)n1 | 0.317 µM | > 100 µM |
| Cc1cc2c3ccccc3ccc2[n+]2ccccc12 | 0.524 µM | 2.13 µM |
| CC1(O)CC2(O)C=CC3=C(C(=O)c4cccc(O)c4C3=O)C2(O)C(=O)C1O (configuration not stated) | 0.735 µM | 2.09 µM |
| Nc1ccn(C2CC(O)C(CO)O2)c(=O)n1 (configuration not stated) | > 5000 µM | > 5000 µM |
| C#C[C@@]1(O)[C@@H](CO)O[C@@H](n2ccc3c(N)ncnc32)[C@@H]1O | 1.3 µM | 3.33 µM |
| N#CSCc1c(Cl)cccc1Cl | 3.82 µM | > 100 µM |
| COc1ccc2c(c1)sc1nc(-c3ccccc3)c(-c3ccc(O)c(OC)c3)n12 | 24.4 µM | > 100 µM |
| Cc1ccc2c(Nc3cccc(Cl)c3F)ncc(NC(=O)c3csc4c(N)ncnc34)c2c1 | > 100 µM | > 100 µM |

| Structure (SMILES) | GI50 | TGI |
| --- | --- | --- |
| COc1ccc(-c2cc(-c3cn[nH]c3-c3ccccn3)ccn2)cc1 | > 25 µM | > 25 µM |
| Cc1ccc(N=Nc2c(N)nn(-c3ccccc3)c2N)cc1 | 0.613 µM | > 100 µM |
| Cc1ccc(-c2cc3nc(C(Cl)Cl)nc(-c4cccnc4)n3n2)cc1 | 0.407 µM | 2.13 µM |
| CNC(=O)c1cc(-n2ccc3cc(NC(=O)Nc4ccc(N5CCN(C)CC5)c(C(F)(F)F)c4)ccc32)ccn1 | 3.48 µM | 7.57 µM |
| CCOC(=O)Cn1c(C)c(/C=N/NC(=O)c2cc3c(ccc4ccccc43)o2)c2ccccc21 | 0.326 µM | 1.34 µM |
| CC1(C)CC(=O)c2c(ccc(C(=O)C[C@H](N)CO)c2N)O1 | – | 17.5 µM and 5.83 µM |
| Nc1nc(N)c2c(ccc3nccc32)[nH]1 | 3.28 µM | 21.3 µM |
| COc1ccc2[nH]c(=O)c(/C=C/C(=O)/C=C/c3ccc(O)c(OC)c3)cc2c1 | 1.37 µM | 4.58 µM |
| CCOC(=O)c1ccc(Nc2sc(C(=O)c3cccc([N+](=O)[O-])c3)c(N)c2C#N)cc1 | 0.222 µM | 4.53 µM |
| COc1ccc(/C=C/C(=O)c2ccc3cc(OC)c(OC)cc3c2)cc1OC | 2.68 µM | 10.2 µM |
| Nc1c(C(=O)c2cccc(C#CCN3CCOCC3)c2)cnn1-c1ccc(F)cc1 | 9.82 µM | > 25 µM |
| CCN(C(=O)CCl)C(C)(C)C(SSSC(c1ccc(Cl)cc1)C(C)(C)N(CC)C(=O)CCl)c1ccc(Cl)cc1 (configuration not stated) | 1.97 µM | 5.39 µM |
| C[C@H](Nc1ncnc2ccc(-c3cnc(Cl)c(NS(C)(=O)=O)c3)cc12)c1ccccc1 | 0.111 µM | 0.841 µM |
| ClC1=NC(Cl)C(Cl)=N/C1=N\c1ncn[nH]1 (configuration not stated) | 1.6 µM | 3.39 µM |
| O=C1c2ccccc2-c2n[nH]c3cccc1c23 | 17.3 µM | > 100 µM |
| N#Cc1cccc(/C=C(/C(=O)c2ccccc2)c2ccccc2)c1 | 2.3 µM | 7.63 µM |
| CN(C)C(=O)c1cc2cnc(Nc3ccc(-c4csc5c(=O)cc(N6CCNCC6)oc45)cc3)nc2n1C1CCCC1 | 0.482 µM | 2.53 µM |
| COc1cccc(-n2ncc3c(N/N=C/c4ccc(S(C)(=O)=O)cc4)ncnc32)c1 | 3.66 µM | 16.5 µM |
| O=c1oc2ccc(Cl)cc2c(=O)n1-c1cc(C(F)(F)F)cc(C(F)(F)F)c1 | 0.236 µM | 0.754 µM |
| ICCC(c1ccccc1)(c1ccccc1)c1ccccc1 | 3.17 µM | 13.3 µM |
| Cc1ncc(C(=O)Nc2ccc(CN3CCN(C)CC3)c(C(F)(F)F)c2)cc1C#Cc1cnc(N)c2ncccc12 | 1.1 µM | 2.58 µM |
| O=C(NC(=S)NNC(=S)NNc1ccccc1)c1ccccc1 | 8.92 µM | > 100 µM |
